# Data published in PubChem BioAssay (NCI).
#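 In this assay, cells in 96-well plates receive the compound at five concentrations for 48 hours. Endpoints are linearly interpolated between the surrounding concentrations. Here, GI50 denotes the concentration required for 50% inhibition of growth. TGI: concentration producing complete growth inhibition.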
# Legend:
# Assay in all cases: DTP human tumour cell line panel, 48 h
# [1] = system: NCI-H460 lung
# [2] = system: RPMI-8226 leukemia
# [3] = system: HOP-62 NSCLC
# [4] = system: IGROV1 ovarian
# [5] = system: PC-3 prostate
# [6] = system: SF-539 CNS
# [7] = system: CAKI-1 renal
# [8] = system: HOP-92 NSCLC
# [9] = system: HL-60(TB) leukemia
# [10] = system: COLO 205 colon
SMILES,GI50 [1] [µM],TGI [1] [µM],GI50 [2] [µM],TGI [2] [µM],GI50 [3] [µM],TGI [3] [µM],GI50 [4] [µM],TGI [4] [µM],GI50 [5] [µM],TGI [5] [µM],GI50 [6] [µM],TGI [6] [µM],GI50 [7] [µM],TGI [7] [µM],GI50 [8] [µM],TGI [8] [µM],GI50 [9] [µM],TGI [9] [µM],GI50 [10] [µM],TGI [10] [µM]
[N-]=[N+]=NCCCCCC(=O)OC(C(=O)c1ccccc1)c1cccc(OCC(=O)NCCOCCOCCNC(=O)CCCC[C@@H]2SC[C@@H]3NC(=O)N[C@@H]32)c1 (some centres undefined),> 100,> 100,29.3,> 100,> 100,> 100,> 100,> 100,> 100,> 100,25.3,72.7,> 100,> 100,34.9,> 100,27.8,> 100,> 100,> 100
Cc1csc(/C=C/C(=O)c2nnn(-c3ccnc4c(C(F)(F)F)cccc34)c2C)c1,43.5,> 100,23.6,> 100,> 100,> 100,> 100,> 100,29.7,> 100,> 100,> 100,42.4,> 100,90.2,> 100,29.7,> 100,41.3,> 100
O=C(COc1cc(O)c2c(=O)cc(-c3ccccc3)oc2c1)Nc1ccccc1C(F)(F)F,2.59,6.68,7.03,> 100,2.62,8.19,3.61,15.9,5.75,> 100,2.21,5.5,3.74,18.7,2.13,6.71,> 100,> 100,8.04,> 100
CCOC(=O)c1cc2c(cc1Cl)SC(N(c1ccc(OC)cc1)S(=O)(=O)c1ccc(Cl)cc1)=NS2(=O)=O,37.3,> 100,31.3,> 100,> 100,> 100,49.6,> 100,20,58.6,15.1,31.2,35.8,> 100,19.1,38.6,36.6,> 100,18.4,48.7
NCCCCCCCn1c2c(c3ccccc3c1=O)C(=O)c1ccccc1-2,0.478,2.59,1.09,2.62,1.36,2.73,1.43,3.58,1.32,2.72,1.66,3.09,1.96,5.25,0.808,2.44,1.38,2.87,2.07,5.15
Cc1ccc(/C(O)=C/C(=O)C(=O)NC23CC4CC(CC(C4)C2)C3)cc1,,,,> 10,,> 10,,,,> 10,,,,> 10,,> 10,,> 10,,> 10
Nc1c(C(=O)Nc2cccc(F)c2)sc2nc3c(cc12)C(=O)CCC3,0.356,> 100,> 34.5,> 100,0.685,> 100,3.02,> 100,0.347,> 100,0.287,> 100,0.387,> 100,0.589,> 100,0.322,> 100,0.273,0.751
CC(C)O/N=C/c1cc(NC(=S)OC(C)C)ccc1Cl,,> 100,,54.2,,> 70.6,,> 94.1,,> 100,,> 78.8,,> 84.7,,99.8,,57.6,,> 81.3
CC1CCCC(C(O)CC2CC(=O)NC(=O)C2)C1O (centres undefined),,> 100,,> 100,,> 100,,> 100,,> 100,,> 100,,> 100,,> 100,,> 100,,> 100
Cc1nnc(-c2cccc(-c3ccc(C(=O)NCC4CC4)cc3)c2)o1,> 25,> 25,> 25,> 25,> 25,> 25,> 25,> 25,> 25,> 25,> 25,> 25,> 25,> 25,> 25,> 25,> 25,> 25,> 25,> 25
COc1cc(N(C)C)c(OC)cc1/C=C\c1ccnc2ccccc12,,> 10,,7.32,,> 10,,> 10,,> 10,,6.48,,> 10,,9.42,,7.99,,> 10
COc1ccc2ccccc2c1C1NC(=O)c2ccccc2N1 (centres undefined),,29.6,,8.06,,> 100,,> 100,,3.19,,5.78,,> 85.2,,> 80.6,,0.877,,
C/C1=C/C(=O)O[C@@H]2C[C@@H](CC[C@H](C)/C=C\C=C\CC1)O[C@@](O)([C@@H]1CSC(=O)N1)C2,,> 10,,> 10,,0.724,,0.547,,> 10,,0.991,,0.619,,0.356,,> 10,,0.36
COc1cc(C(=O)N2CCN(c3ncnc4ccccc34)CC2)c(N)cc1OCc1ccccc1,11.3,26.1,14,47.8,,,17.8,41.6,15.4,43.2,18.6,33.2,5.73,24.1,15.4,36.3,20.4,47.7,5.14,20.2
